# Experimental data as given in patent publication US20250235566A1, “[…]-[…] LABELING PRECURSORS AND RA[…] THEREFROM” (Medianezia GmbH, priority 2021, published 2025).
# Experiments:
# Assay type in all cases: biochemical
# [1] = biological target: T1, rhFAP (fibroblast activation protein) (Homo sapiens, UniProt Q12884); assay: FAP IC50 measurement with Z-Gly-Pro-AMC substrate; conditions: Z-Gly-Pro-AMC 50 μM, pH=8, 15 min pre-incubation at 37° C.
# T1 construct: made in house
# T1 sequence (Q12884 1-760): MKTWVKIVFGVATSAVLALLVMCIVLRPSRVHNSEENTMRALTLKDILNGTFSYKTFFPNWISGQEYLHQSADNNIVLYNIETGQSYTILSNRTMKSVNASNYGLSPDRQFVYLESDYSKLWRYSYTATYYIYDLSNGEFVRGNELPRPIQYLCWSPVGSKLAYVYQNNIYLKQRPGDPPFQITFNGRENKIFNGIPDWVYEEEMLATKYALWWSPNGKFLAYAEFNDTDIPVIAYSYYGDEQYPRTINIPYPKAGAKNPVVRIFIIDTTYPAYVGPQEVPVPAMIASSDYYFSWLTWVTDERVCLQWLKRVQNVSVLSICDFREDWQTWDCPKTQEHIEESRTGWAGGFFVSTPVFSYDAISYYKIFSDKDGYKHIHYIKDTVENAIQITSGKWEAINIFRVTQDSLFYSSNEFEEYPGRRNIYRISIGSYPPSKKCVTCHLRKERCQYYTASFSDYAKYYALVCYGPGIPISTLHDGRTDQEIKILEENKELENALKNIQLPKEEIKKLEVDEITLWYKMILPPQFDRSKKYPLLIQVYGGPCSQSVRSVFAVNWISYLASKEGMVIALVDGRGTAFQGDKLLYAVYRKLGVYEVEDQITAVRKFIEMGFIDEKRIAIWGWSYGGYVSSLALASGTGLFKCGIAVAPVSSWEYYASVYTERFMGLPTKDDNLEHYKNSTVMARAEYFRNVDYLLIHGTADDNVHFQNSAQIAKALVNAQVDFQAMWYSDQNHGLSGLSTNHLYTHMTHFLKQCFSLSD
# Description: (§1) The rhFAP (fibroblast activation protein), PREP (prolyl endopeptidase), DPP4 (dipeptidylpeptidase IV), DPP8 (dipeptidylpeptidase VIII) and DPP 9 (dipeptidylpeptidase IX) enzymes were expressed before use in the in vitro assays and then purified.
# (§2) IC50 measurements were conducted with the Infinite 200 instrument (Tecan Group Ltd.) and evaluated with the Magellan software.
# (§3) The data were evaluated by GraFit 7 using a non-linear fit according to the following equation: […]
# (§4) where y is the remaining enzyme activity compared to the non-inhibited sample, xis the final inhibitor concentration used in the assay, s is the slope factor and IC50 is the […] inhibitory concentration.
# (§5) 8 concentrations of the FAP inhibitors examined were examined, with always the same DMSO concentration. The inhibitors were pre-incubated at 37° C. for 15 min before the Z-Gly-Pro-AMC substrate was added. The release kinetics of AMC were measured at an excitation wavelength λex=380 nm and emission wavelength Δem=465 nm for at least 10 min.
# [2] = biological target: T2, PREP (prolyl endopeptidase) (Homo sapiens, UniProt P48147); assay: PREP IC50 measurement with N-succinyl-Gly-Pro-AMC substrate; conditions: N-succinyl-Gly-Pro-AMC 250 μM, pH=7.4
# T2 construct: made in house
# T2 sequence (P48147 1-710): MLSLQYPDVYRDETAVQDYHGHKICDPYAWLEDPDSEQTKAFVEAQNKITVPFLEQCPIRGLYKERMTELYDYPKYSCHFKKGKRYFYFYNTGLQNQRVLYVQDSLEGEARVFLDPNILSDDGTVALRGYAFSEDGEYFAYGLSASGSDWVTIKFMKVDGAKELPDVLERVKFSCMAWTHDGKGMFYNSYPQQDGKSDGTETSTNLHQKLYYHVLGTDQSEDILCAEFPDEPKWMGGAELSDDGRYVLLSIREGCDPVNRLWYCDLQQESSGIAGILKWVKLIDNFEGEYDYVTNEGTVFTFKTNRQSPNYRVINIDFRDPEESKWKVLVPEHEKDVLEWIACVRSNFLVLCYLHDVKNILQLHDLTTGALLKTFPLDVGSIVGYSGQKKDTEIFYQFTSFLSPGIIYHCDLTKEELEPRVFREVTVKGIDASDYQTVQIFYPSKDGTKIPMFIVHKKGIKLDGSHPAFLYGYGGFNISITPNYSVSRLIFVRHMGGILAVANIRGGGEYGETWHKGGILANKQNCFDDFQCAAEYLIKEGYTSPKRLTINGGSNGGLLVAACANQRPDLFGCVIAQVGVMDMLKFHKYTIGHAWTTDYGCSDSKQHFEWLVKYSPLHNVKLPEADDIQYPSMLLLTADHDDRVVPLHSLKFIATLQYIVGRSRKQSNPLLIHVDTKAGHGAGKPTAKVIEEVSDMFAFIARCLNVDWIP
# Description: as §1, §2, §3, §4
# as §5, with “N-succinyl-Gly-Pro-AMC” for “Z-Gly-Pro-AMC”, “λem=465” for “Δem=465”
# [3] = biological target: T3, DPP4 (dipeptidylpeptidase IV) (Homo sapiens, UniProt P27487); assay: DPP4 IC50 measurement with Ala-Pro-pNA substrate; conditions: Ala-Pro-pNA 25 μM, pH=7.4
# T3 construct: made in house
# Description: as §1, §2, §3, §4
# (§6) At least 8 concentrations of the FAP inhibitors examined were examined, with always the same DMSO concentration. The inhibitors were pre-incubated at 37° C. for 15 min before the Ala-Pro-pNA substrate was added.
# [4] = biological target: T4, DPP8 (dipeptidylpeptidase VIII) (Homo sapiens, UniProt Q6V1X1); assay: DPP8 IC50 measurement with Ala-Pro-pNA substrate; conditions: Ala-Pro-pNA 300 μM, pH=7.4
# T4 construct: made in house
# Description: as §1, §2, §3, §4
# as §6, with “added. The release kinetics of pNA were measured at a wavelength of λex=405 nm for at least 10 min.” for “added.”
# [5] = biological target: T5, DPP 9 (dipeptidylpeptidase IX) (Homo sapiens, UniProt Q86TI2); assay: DPP9 IC50 measurement with Ala-Pro-pNA substrate; conditions: Ala-Pro-pNA 150 μM, pH=7.4
# T5 construct: made in house
# Description: as §1, §2, §3, §4, §6
# T5 sequence (Q86TI2 whole entry, species assumed): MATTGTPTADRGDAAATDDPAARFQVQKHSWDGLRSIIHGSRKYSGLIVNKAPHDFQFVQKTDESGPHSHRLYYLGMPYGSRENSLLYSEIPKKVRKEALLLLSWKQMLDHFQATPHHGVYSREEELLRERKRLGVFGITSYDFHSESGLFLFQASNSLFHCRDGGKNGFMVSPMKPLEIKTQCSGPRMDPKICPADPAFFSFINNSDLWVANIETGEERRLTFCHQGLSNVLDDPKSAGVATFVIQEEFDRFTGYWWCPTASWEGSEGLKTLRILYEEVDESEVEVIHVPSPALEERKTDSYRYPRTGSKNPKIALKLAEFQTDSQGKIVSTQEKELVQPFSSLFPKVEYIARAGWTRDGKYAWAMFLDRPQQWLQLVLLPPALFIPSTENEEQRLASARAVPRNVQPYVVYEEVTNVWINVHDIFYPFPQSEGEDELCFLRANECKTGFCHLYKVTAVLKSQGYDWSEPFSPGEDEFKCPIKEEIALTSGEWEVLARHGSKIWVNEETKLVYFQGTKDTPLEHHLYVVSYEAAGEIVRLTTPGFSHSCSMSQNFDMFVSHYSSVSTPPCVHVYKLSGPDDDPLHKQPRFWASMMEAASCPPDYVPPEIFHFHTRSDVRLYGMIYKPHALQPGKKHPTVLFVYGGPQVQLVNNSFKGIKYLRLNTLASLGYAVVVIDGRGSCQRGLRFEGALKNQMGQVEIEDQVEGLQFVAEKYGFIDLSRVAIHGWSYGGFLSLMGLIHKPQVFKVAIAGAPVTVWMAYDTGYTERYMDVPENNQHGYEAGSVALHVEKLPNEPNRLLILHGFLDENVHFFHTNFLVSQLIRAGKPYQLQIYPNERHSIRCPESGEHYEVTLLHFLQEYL
# T4 sequence (Q6V1X1 whole entry, species assumed): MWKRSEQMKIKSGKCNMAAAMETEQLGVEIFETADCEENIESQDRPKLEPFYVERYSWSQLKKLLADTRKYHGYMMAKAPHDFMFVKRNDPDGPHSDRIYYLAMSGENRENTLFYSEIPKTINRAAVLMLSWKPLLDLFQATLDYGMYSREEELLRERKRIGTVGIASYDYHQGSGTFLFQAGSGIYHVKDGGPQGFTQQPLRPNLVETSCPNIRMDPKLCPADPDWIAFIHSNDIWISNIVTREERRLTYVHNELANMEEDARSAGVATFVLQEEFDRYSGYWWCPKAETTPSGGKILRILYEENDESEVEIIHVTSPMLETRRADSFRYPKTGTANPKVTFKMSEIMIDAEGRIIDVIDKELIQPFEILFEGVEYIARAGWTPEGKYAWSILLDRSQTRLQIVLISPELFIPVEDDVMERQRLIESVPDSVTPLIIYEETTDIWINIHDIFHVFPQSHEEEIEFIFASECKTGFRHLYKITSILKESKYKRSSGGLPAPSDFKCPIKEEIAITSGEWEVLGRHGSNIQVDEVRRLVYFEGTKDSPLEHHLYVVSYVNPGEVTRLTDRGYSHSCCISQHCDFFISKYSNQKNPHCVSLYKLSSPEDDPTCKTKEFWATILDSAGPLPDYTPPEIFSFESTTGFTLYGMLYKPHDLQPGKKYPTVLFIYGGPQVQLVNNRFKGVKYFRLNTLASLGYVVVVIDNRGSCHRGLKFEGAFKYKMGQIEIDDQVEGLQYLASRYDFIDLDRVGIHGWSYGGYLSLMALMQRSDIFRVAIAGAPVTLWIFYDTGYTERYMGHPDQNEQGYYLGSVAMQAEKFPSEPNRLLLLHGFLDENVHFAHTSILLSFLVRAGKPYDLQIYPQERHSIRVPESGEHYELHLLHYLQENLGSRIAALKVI
# T3 sequence (P27487 whole entry, species assumed): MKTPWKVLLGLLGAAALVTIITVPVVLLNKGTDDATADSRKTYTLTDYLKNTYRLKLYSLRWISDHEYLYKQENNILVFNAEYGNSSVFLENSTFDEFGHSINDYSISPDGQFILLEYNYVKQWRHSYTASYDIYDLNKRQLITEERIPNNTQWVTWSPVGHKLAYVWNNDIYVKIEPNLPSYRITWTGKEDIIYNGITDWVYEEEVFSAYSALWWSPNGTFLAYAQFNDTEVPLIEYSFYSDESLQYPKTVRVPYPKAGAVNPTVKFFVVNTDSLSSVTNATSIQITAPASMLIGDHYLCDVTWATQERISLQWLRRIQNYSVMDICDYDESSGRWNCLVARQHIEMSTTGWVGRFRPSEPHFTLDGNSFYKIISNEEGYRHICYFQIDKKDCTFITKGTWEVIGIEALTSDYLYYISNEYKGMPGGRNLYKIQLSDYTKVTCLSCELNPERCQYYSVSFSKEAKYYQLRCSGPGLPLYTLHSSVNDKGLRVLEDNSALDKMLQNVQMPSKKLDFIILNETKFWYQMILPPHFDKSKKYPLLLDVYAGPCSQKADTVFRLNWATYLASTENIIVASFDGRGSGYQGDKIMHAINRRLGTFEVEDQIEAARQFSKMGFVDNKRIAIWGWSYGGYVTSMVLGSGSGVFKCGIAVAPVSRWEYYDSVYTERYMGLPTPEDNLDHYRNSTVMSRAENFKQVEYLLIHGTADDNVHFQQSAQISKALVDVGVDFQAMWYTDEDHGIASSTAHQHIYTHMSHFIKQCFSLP
SMILES,IC50 [1] [nM],IC50 [2] [nM],IC50 [3] [nM],IC50 [4] [nM],IC50 [5] [nM]
"CN(CC(=O)O)C1(CCCCC(=O)N[C@@H](CCC(=O)NCCCCOc2ccc3nccc(C(=O)NCC(=O)N4CC(F)(F)C[C@H]4C#N)c3c2)C(=O)NCCCCOc2ccc3nccc(C(=O)NCC(=O)N4CC(F)(F)C[C@H]4C#N)c3c2)CN(CC(=O)O)CCN(CC(=O)O)C1 [DATA^5m.Glu.(FAPi)2, 2,2′-(6-(5-(((S)-1,5-bis((4-((4-((2-((S)-2-cyano-4,4-difluoropyrrolidin-1-yl)-2-oxoethyl)carbamoyl)quinolin-6-yl)oxy)butyl)amino)-1,5-dioxopentan-2-yl)amino)-5-oxopentyl)-6-((carboxymethyl)(methyl)amino)-1,4-diazepane-1,4-diyl)diacetic acid]",0.71 ± 0.05,310 ± 60,1570 ± 60,2220 ± 400,770 ± 110
"N#C[C@@H]1CC(F)(F)CN1C(=O)CNC(=O)c1ccnc2ccc(OCCCCNC(=O)CC[C@H](NC(=O)CN3CCN(CC(=O)O)CCN(CC(=O)O)CCN(CC(=O)O)CC3)C(=O)NCCCCOc3ccc4nccc(C(=O)NCC(=O)N5CC(F)(F)C[C@H]5C#N)c4c3)cc12 [DOTA.Glu.(FAPi)2, 2,2′,2″-(10-(2-(((S)-1,5-bis((4-((4-((2-((S)-2-cyano-4,4-difluoropyrrolidin-1-yl)-2-oxoethyl)carbamoyl)quinolin-6-yl)oxy)butyl)amino)-1,5-dioxopentan-2-yl)amino)-2-oxoethyl)-1,4,7,10-tetraazacyclododecan-1,4,7-triyl)triacetic acid]",0.6 ± 0.04,1000 ± 140,540 ± 60,1030 ± 180,950 ± 110
"N#C[C@@H]1CC(F)(F)CN1C(=O)CNC(=O)c1ccnc2ccc(OCCCCNC(=O)CC[C@H](NC(=O)CCC(C(=O)O)N3CCN(CC(=O)O)CCN(CC(=O)O)CCN(CC(=O)O)CC3)C(=O)NCCCCOc3ccc4nccc(C(=O)NCC(=O)N5CC(F)(F)C[C@H]5C#N)c4c3)cc12 (stereo partly drawn) [DOTAGA.Glu.(FAPi)2, 2,2′,2″-(10-(4-(((S)-1,5-bis((4-((4-((2-((S)-2-cyano-4,4-difluoropyrrolidin-1-yl)-2-oxoethyl)carbamoyl)quinolin-6-yl)oxy)butyl)amino)-1,5-dioxopentan-2-yl)amino)-1-carboxy-4-oxobutyl)-1,4,7,10-tetraazacyclododecan-1,4,7-triyl)triacetic acid]",0.26 ± 0.04,590 ± 100,1190 ± 80,29 ± 4,83 ± 1.5
"N#C[C@@H]1CC(F)(F)CN1C(=O)CNC(=O)c1ccnc2ccccc12 [UAMC1110, (S)—N-(2-(2-cyano-4,4′-difluoropyrrolidin-1-yl)-2-oxoethyl)quinoline-4-carboxamide, reference compound]",,,,> 10000,
